Here are results for one compound from patent US4929639A, “Oxygen-containing heterocyclic compound” (Fujisawa Pharmaceutical Company, Ltd., priority 1988, dated 1990).

For the experiment, the system named is rabbit platelet. The experiment can be described thus: Effect on 9,11-azo PGH2 induced aggregation of rabbit platelet in vitro. It counts as cell-based. The note with it: Oryctolagus cuniculus, rabbit PRP, 9,11-azo PGH2 final 1.0 μM, 37° C., 2 minutes preincubation, read-out: IC50 (Inhibition concentration of platelet aggregation by 50%). The source says:
In the following tests, the used 9, 11-azo PGH2 and 9,11-methanoepoxy PGH2 (U46619) are characterized pharmacologically as TXA2 mimetic agents and widely used for evaluating TXA2 antagonism of test compounds (for example, vida The Journal of Pharmacology and Experimental Therapeutics Vol. 234, pp 435-441).
Test 1 (Effect on 9,11-azo PGH2 induced aggregation of rabbit platelet in vitro)
In the in vitro experiments, the blood was collected from the carotid artery of rabbits into plastic vessels containing 0.1 volume of 3.8% aqueous sodium citrate. Platelet rich plasma (PRP) was prepared by centrifugation at 150 g for 15 minutes. Platelet aggregation was investigated using the turbidometric method with an aggregometer (NKK HEMATRACER 1). To the 225 μl of PRP, 25 μl of test compound solution was added, and then stirred at 1000 rpm for 2 minutes at 37° C. To the solution, 5 μl of 9,11-azo PGH2 (final 1.0 μM) was added as an aggregating inducer. IC50 (Inhibition concentration of platelet aggregation by 50%) were graphically determined.

For `C[C@@H]1OC[C@H](C/C=C\CCCC(=O)O)[C@H](C=NNC(=O)Nc2ccccc2)O1` [Test compound 2], the IC50 came out at 260 nM.
